Data reported in patent US9976141B2, “Compositions and methods for inhibiting gene expression of Hif2alpha” (Arrowhead Madison Inc., priority 2015, dated 2018).
Where “and” joins values, the source holds several entries; their conditions need not be identical. Identical values can stand only once.

System: human (tumor) Hif2α (EPAS1) mRNA
Test: Hif2α knockdown in orthotopic RCC tumor bearing mice, single injection of RNAi trigger-delivery polymer conjugate, RT-qPCR (Table 7)
Format: in vivo
Details: single tail vein injection, relative to isotonic glucose
Method in brief: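 A single intravenous dose of Hif2α RNAi trigger–delivery polymer conjugate, or isotonic glucose vehicle, was given to nude mice with subcapsular A498-SEAP renal tumours (about 5–6 weeks old). At the indicated time, tumour RNA was assayed by biplex TaqMan qPCR against CycA, and relative expression was calculated by ΔΔCT versus vehicle.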

[1] = RNAi trigger 50 μg, polymer 064 125 μg
[2] = RNAi trigger 75 μg, polymer 064 187.5 μg

Row | Substance | Relative Expression day 4 (Hif2α mRNA in kidney tumor) [1] | Relative Expression day 4 (Hif2α mRNA in kidney tumor) [2]
1 | AD02074 (antisense TUUCAUGAAAUCGUUACGUTT; sense ACGUAACGAUUUCAUGAAAT; Hif2alpha RNAi agent antisense strand; modified_base 2,4,6,8,10,14,16,18 /mod_base = “2′-deoxy-2′-fluoro corresponding nucleoside”; modified_base 3,5,7,9,11,12,13,15,17,19 /mod_base = “2′-O-methyl corresponding nucleoside”; modified_base 2,3,21 /mod_base = “5′-phosphorothioate corresponding nucleotide”; Hif2alpha RNAi agent sense strand; modified_base 1,3,5,7,8,9,11,13,15,17,19 /mod_base = “2′-deoxy-2′-fluoro corresponding nucleoside”; modified_base 2,4,6,10,12,14,16,18 /mod_base = “2′-O-methyl corresponding nucleoside”; modified_base 20 /mod_base = “3′-3′-linked nucleotide”; modified_base 1) | 0.566 | 
2 | AD02691 (antisense UUUCAUGAAAUCGUUACGUUG; sense ACGUAACGAUUUCAUGAAAT; Hif2alpha RNAi agent antisense strand; modified_base 2,4,6,8,10,14,16,18 /mod_base = “2′-deoxy-2′-fluoro corresponding nucleoside”; modified_base 1,3,5,7,9,11,12,13,15,17,19,20,21 /mod_base = “2′-O-methyl corresponding nucleoside”; modified_base 2,3,20,21 /mod_base = “5′-phosphorothioate corresponding nucleotide”; Hif2alpha RNAi agent sense strand; modified_base 1,3,5,7,8,9,11,13,15,17 /mod_base = “2′-deoxy-2′-fluoro corresponding nucleoside”; modified_base 2,4,6,10,12,14,16,18,19 /mod_base = “2′-O-methyl corresponding nucleoside”; modified_base 20 /mod_base = “3′-3′-linked nucleotide”; modi) |  | 0.124
3 | AD02692 (antisense UUUCAUGAAAUCGUUACGUUG; sense ACGUAACGAUUUCAUGAAAT; Hif2alpha RNAi agent antisense strand; modified_base 2,4,6,8,10,14,16,18 /mod_base = “2′-deoxy-2′-fluoro corresponding nucleoside”; modified_base 1,3,5,7,9,11,12,13,15,17,19,20,21 /mod_base = “2′-O-methyl corresponding nucleoside”; modified_base 2,3,20,21 /mod_base = “5′-phosphorothioate corresponding nucleotide”; Hif2alpha RNAi agent sense strand; modified_base 3,5,7,8,9,13,15,17 /mod_base = “2′-deoxy-2′-fluoro corresponding nucleoside”; modified_base 1,2,4,6,10,11,12,14,16,18,19 /mod_base = “2′-O-methyl corresponding nucleoside”; modified_base 20 /mod_base = “3′-3′-linked nucleotide”; modi) | 0.092 | 0.089 and 0.121
4 | AD02693 (antisense UUUCAUGAAAUCGUUACGUUG; sense ACGUAACGAUUUCAUGAAAT; Hif2alpha RNAi agent antisense strand; modified_base 2,4,6,8,10,14,16,18 /mod_base = “2′-deoxy-2′-fluoro corresponding nucleoside”; modified_base 1,3,5,7,9,11,12,13,15,17,19,20,21 /mod_base = “2′-O-methyl corresponding nucleoside”; modified_base 2,3,20,21 /mod_base = “5′-phosphorothioate corresponding nucleotide”; Hif2alpha RNAi agent sense strand; modified_base 5,7,9,13,15,17 /mod_base = “2′-deoxy-2′-fluoro corresponding nucleoside”; modified_base 1,2,3,4,6,8,10,11,12,14,16,18,19 /mod_base = “2′-O-methyl corresponding nucleoside”; modified_base 20 /mod_base = “3′-3′-linked nucleotide”; modi) |  | 0.122
5 | AD02694 (antisense UUUCAUGAAAUCGUUACGUUG; sense ACGUAACGAUUUCAUGAAAT; Hif2alpha RNAi agent antisense strand; modified_base 2,4,6,8,10,14,16,18 /mod_base = “2′-deoxy-2′-fluoro corresponding nucleoside”; modified_base 1,3,5,7,9,11,12,13,15,17,19,20,21 /mod_base = “2′-O-methyl corresponding nucleoside”; modified_base 2,3,20,21 /mod_base = “5′-phosphorothioate corresponding nucleotide”; Hif2alpha RNAi agent sense strand; modified_base 3,7,9,13,17 /mod_base = “2′-deoxy-2′-fluoro corresponding nucleoside”; modified_base 1,2,4,5,6,8,10,11,12,14,15,16,18,19 /mod_base = “2′-O-methyl corresponding nucleoside”; modified_base 20 /mod_base = “3′-3′-linked nucleotide”; modi) |  | 0.099
6 | AD02695 (antisense UUUCAUGAAAUCGUUACGUUG; sense ACGUAACGAUUUCAUGAAAT; Hif2alpha RNAi agent antisense strand; modified_base 2,4,6,8,10,14,16,18 /mod_base = “2′-deoxy-2′-fluoro corresponding nucleoside”; modified_base 1,3,5,7,9,11,12,13,15,17,19,20,21 /mod_base = “2′-O-methyl corresponding nucleoside”; modified_base 2,3,20,21 /mod_base = “5′-phosphorothioate corresponding nucleotide”; Hif2alpha RNAi agent sense strand; modified_base 7,9,13 /mod_base = “2′-deoxy-2′-fluoro corresponding nucleoside”; modified_base 1,2,3,4,5,6,8,10,11,12,14,15,16,17,18,19 /mod_base = “2′-O-methyl corresponding nucleoside”; modified_base 20 /mod_base = “3′-3′-linked nucleotide”; modi) | 0.123 | 0.101 and 0.155
7 | AD02733 (antisense UUUCAUGAAAUCGUUACGUUG; sense ACGUAACGAUUUCAUGAAAT; Hif2alpha RNAi agent antisense strand; modified_base 2,4,6,8,10 /mod_base = “2′-deoxy-2′-fluoro corresponding nucleoside”; modified_base 1,3,5,7,9,11,12,13,14,15,16,17,18,19,20,21 /mod_base = “2′-O-methyl corresponding nucleoside”; modified_base 2,3,20,21 /mod_base = “5′-phosphorothioate corresponding nucleotide”; Hif2alpha RNAi agent sense strand; modified_base 7,9 /mod_base = “2′-deoxy-2′-fluoro corresponding nucleoside”; modified_base 1,2,3,4,5,6,8,10,11,12,13,14,15,16,17,18,19 /mod_base = “2′-O-methyl corresponding nucleoside”; modified_base 20 /mod_base = “3′-3′-linked nucleotide”; modi) |  | 0.283
8 | AD02734 (antisense UUUCAUGAAAUCGUUACGUUG; sense ACGUAACGAUUUCAUGAAAT; Hif2alpha RNAi agent antisense strand; modified_base 2,4,6,8 /mod_base = “2′-deoxy-2′-fluoro corresponding nucleoside”; modified_base 1,3,5,7,9,10,11,12,13,14,15,16,17,18,19,20,21 /mod_base = “2′-O-methyl corresponding nucleoside”; modified_base 2,3,20,21 /mod_base = “5′-phosphorothioate corresponding nucleotide”; Hif2alpha RNAi agent sense strand; modified_base 7,9 /mod_base = “2′-deoxy-2′-fluoro corresponding nucleoside”; modified_base 1,2,3,4,5,6,8,10,11,12,13,14,15,16,17,18,19 /mod_base = “2′-O-methyl corresponding nucleoside”; modified_base 20 /mod_base = “3′-3′-linked nucleotide”; modi) |  | 0.262
9 | AD02735 (antisense AUUCAUGAAAUCGUUACGUUG; sense ACGUAACGAUUUCAUGAAUT; Hif2alpha RNAi agent antisense strand; modified_base 2,4,6,8,10,14,16,18 /mod_base = “2′-deoxy-2′-fluoro corresponding nucleoside”; modified_base 1,3,5,7,9,11,12,13,15,17,19,20,21 /mod_base = “2′-O-methyl corresponding nucleoside”; modified_base 2,3,20,21 /mod_base = “5′-phosphorothioate corresponding nucleotide”; Hif2alpha RNAi agent sense strand; modified_base 3,5,7,8,9,13,15,17 /mod_base = “2′-deoxy-2′-fluoro corresponding nucleoside”; modified_base 1,2,4,6,10,11,12,14,16,18,19 /mod_base = “2′-O-methyl corresponding nucleoside”; modified_base 20 /mod_base = “3′-3′-linked nucleotide”; modi) | 0.144 | 
